How the values were obtained:
RAD51 [1] = biological target: T1, RAD51 (Homo sapiens, UniProt Q06609); assay: SPR Kd estimation of TR2 for wild-type and mutant RAD51; format: binding; settings: saturation not achieved, would need >30 uM TR2
T1 construct: made in house; host or cells: E. coli BL21(DE3)Rosetta2
T1 sequence (Q06609 2-339): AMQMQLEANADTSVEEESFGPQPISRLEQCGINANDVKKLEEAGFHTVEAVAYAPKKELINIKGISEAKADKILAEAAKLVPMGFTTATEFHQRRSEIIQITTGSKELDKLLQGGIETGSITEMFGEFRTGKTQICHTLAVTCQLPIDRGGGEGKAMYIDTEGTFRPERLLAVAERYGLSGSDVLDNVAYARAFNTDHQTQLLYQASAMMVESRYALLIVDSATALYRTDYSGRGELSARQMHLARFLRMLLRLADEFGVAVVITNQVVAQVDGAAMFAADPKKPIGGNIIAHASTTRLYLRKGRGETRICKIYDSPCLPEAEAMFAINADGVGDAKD
Protocol: (§1) All binding experiments were performed in CMA buffer: 25 mM HEPES pH 7.4, 100 mM NaCl, 2 mM DTT, 2 mM ATP, 5 mM CaCl2, 5 mM MgCl2. 1 μM RAD51 (wild-type, D184A or D184A, D187A mutant proteins) was injected for 120 seconds followed by buffer for 120 seconds at a flow rate of 10 μl/min. TR2 or BRC4 peptides were then injected in a concentration titration series of 0.1, 0.25, 0.5, 0.75, 1, 2, 3, 5, 7.5, 10 and 15 μM for 120 seconds at a flow rate of […] followed by a dissociation time of 240 seconds. After each injection of BRCA2 peptide, the sensor chip was regenerated with buffer comprising of CMA buffer with 1 M NaCl for 120 seconds at a flow rate of 100 μl/min. All experiments were performed in triplicate.
(§2) For the BRCA2 TR2 titration series, blank-subtracted sensorgrams were used to extract the maximum response accumulated after each TR2 injection. TR2 response accumulation was corrected to account for differences in RAD51 filament formation between runs, by multiplying the maximum response by a scale factor calculated as the ratio between mean RAD51 filament accumulation on each DNA substrate and the mean RAD51 accumulated for each mutant for each triplicate. […]
(§3) consequently the need to inject the TR2 peptide at high concentrations (>30 uM), which would change sample viscosity and affect the refractive index for detection. The Kd values that we obtained based on the measured […]

RAD51 [2] = assay: as above; format: binding, human; settings: no binding saturation, large confidence intervals, statistically unreliable, no numbers given
Protocol: as §1, §2, §3

## DDQKNCKKRRALDFLSRLPLPPPVSPICTFVSPAAQKAFQPPRSCGTKY [TR2, BRCA2 TR2 peptide spanning amino acids 3260 to 3308]
RAD51 [1]
  affinity of TR2 for RAD51: relatively low affinity
RAD51 [2]
  Kd trend, wild-type versus mutant RAD51: KdwtRAD51 < KdmutRAD51

From paper PMC10622577, “Structural basis for stabilisation of the RAD51 nucleoprotein filament by BRCA2” (Nature Communications, 2023)
